Assay results reported in paper PMC6618152, “Abscisic acid is a substrate of the ABC transporter encoded by the durable wheat disease resistance gene Lr34” (The New Phytologist, 2019).

Assays:
[1] = target: T1, LR34res (Triticum aestivum, UniProt A0A9R1MFS8); test: competition of 3H-ABA uptake in LR34res-expressing yeast; format: cell-based; conditions: 50 nM labelled and unlabelled ABA mixture, 10 min, pH 6.3; competition for substrate binding suggested, not proven
T1 construct: gene CFC21_107174; full-length cDNA from p6U:cLr34res, C-terminal HA tag, in pNEV-N; expressed in Saccharomyces cerevisiae W303 and YMM12; predicted c; 160 kDa
T1 sequence (A0A9R1MFS8 1-1401): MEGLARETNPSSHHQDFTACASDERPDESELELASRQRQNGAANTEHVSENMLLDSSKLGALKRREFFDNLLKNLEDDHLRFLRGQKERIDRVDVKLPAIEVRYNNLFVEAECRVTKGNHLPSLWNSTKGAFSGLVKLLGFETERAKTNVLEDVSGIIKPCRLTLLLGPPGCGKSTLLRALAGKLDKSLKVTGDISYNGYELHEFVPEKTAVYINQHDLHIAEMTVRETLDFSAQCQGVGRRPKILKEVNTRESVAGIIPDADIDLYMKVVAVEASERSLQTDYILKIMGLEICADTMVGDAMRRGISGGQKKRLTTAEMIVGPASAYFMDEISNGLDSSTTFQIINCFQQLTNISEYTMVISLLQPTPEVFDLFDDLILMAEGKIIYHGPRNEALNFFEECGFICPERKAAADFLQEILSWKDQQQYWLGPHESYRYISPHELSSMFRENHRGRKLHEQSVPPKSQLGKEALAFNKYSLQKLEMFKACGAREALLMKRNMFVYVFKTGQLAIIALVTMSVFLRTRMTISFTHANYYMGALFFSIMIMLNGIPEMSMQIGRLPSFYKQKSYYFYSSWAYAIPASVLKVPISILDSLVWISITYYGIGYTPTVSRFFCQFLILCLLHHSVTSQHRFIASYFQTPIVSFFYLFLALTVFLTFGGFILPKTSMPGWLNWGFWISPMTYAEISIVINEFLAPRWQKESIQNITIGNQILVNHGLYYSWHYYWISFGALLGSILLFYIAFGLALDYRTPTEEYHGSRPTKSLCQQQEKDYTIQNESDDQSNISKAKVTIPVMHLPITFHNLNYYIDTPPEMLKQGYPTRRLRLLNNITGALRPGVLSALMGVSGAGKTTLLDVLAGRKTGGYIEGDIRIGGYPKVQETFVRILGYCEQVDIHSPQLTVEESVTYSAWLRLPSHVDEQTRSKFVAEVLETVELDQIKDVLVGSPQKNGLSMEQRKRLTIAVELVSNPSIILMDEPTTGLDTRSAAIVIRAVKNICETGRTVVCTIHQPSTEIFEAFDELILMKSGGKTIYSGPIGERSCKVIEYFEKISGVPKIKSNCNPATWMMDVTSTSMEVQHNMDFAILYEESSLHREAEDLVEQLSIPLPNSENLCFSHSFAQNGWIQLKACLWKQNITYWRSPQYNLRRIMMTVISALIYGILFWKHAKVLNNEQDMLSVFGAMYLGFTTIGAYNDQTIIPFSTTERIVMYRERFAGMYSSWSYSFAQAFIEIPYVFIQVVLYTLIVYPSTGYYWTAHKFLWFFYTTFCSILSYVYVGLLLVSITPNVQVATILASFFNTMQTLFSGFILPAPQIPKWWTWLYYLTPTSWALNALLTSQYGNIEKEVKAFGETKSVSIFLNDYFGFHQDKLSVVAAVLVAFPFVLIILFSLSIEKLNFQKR

[2] = target: T1, LR34res; test: inhibition of 3H-ABA uptake in yeast YMM12; format: cell-based; conditions: 20 min preincubation, then 10 min with labelled ABA; general ABC transporter inhibitor; allele in this panel not stated, taken as LR34res

Row | SMILES | % reduction of 3H-ABA uptake at 3 μM [1] | relative 3H-ABA accumulation (% of control) [2]
1 | C=C[C@](C)(O)CC[C@@H]1[C@@]2(C)CCCC(C)(C)[C@@H]2CC[C@@]1(C)O [sclareol] | ~ 40% | 
2 | COc1ccc(Cl)cc1C(=O)NCCc1ccc(S(=O)(=O)NC(=O)NC2CCCCC2)cc1 [glibenclamide] |  | The ABC transporter inhibitor glibenclamide
